Source: PubChem BioAssay (NCI)
“And” between values parts separate entries of the source, which are not always exact repeats. Identical values can stand only once.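 Test compounds were applied to cells in 96-well plates for 48 hours at 5 doses. At the GI50, growth is halved. The concentration for full growth arrest is given as TGI.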

Assays:
Test in all cases: DTP human tumour cell line panel, 48 h
HS 578T breast = system: HS 578T breast
TK-10 renal = system: TK-10 renal
SR leukemia = system: SR leukemia
HOP-62 NSCLC = system: HOP-62 NSCLC
CAKI-1 renal = system: CAKI-1 renal
SW-620 colon = system: SW-620 colon
COLO 205 colon = system: COLO 205 colon
SNB-75 CNS = system: SNB-75 CNS
UACC-257 melanoma = system: UACC-257 melanoma
OVCAR-5 ovarian = system: OVCAR-5 ovarian

SMILES	GI50 (HS 578T breast)	GI50 (TK-10 renal)	TGI (TK-10 renal)	GI50 (SR leukemia)	TGI (SR leukemia)	GI50 (HOP-62 NSCLC)	TGI (HOP-62 NSCLC)	GI50 (CAKI-1 renal)	GI50 (SW-620 colon)	GI50 (COLO 205 colon)	TGI (COLO 205 colon)	TGI (SNB-75 CNS)	GI50 (UACC-257 melanoma)	TGI (UACC-257 melanoma)	GI50 (OVCAR-5 ovarian)	TGI (OVCAR-5 ovarian)	TGI (HS 578T breast)	TGI (CAKI-1 renal)	TGI (SW-620 colon)	GI50 (SNB-75 CNS)
Nc1nc(=S)c2[nH]cnc2[nH]1	4.13 µM	0.375 µM and 0.542 µM and 1.26 µM	41.3 µM and 67.7 µM and 9.02 µM	0.0786 µM and 0.588 µM	> 24.7 µM and 15.7 µM	0.472 µM	> 31.8 µM and 29.6 µM and 94.9 µM	0.264 µM and 0.345 µM and 0.888 µM	0.564 µM and 3.6 µM and 1.18 µM	0.998 µM and 2.35 µM and 2.52 µM	5.68 µM [middle of 4 runs]	> 86 µM and 45.8 µM and > 250 µM	0.708 µM and 5.94 µM	> 70.3 µM and 110 µM and > 250 µM	0.498 µM and 1.93 µM	> 100 µM and 46 µM and > 250 µM	–	–	–	–
NC(N)=N/N=C(/c1ccccc1)c1ccccc1F	2.79 µM	9.86 µM	47.2 µM	0.809 µM	> 100 µM	4.62 µM	18.2 µM	4.26 µM	2.75 µM	2.16 µM	7.01 µM	21.7 µM	15.8 µM	38.1 µM	7.49 µM	33.8 µM	11.6 µM	31.4 µM	21.1 µM	0.661 µM
CC1(C)CC[C@]2(C(=O)O)CC[C@]3(C)C(=CC[C@@H]4[C@@]5(C)C/C(=C/c6ccco6)C(=O)C(C)(C)[C@@H]5CC[C@]43C)[C@@H]2C1	5.19 µM	6.11 µM	89.8 µM	4.04 µM	52.4 µM	3.75 µM	14.9 µM	2.72 µM	3.82 µM	2.02 µM	3.89 µM	54.6 µM	6.24 µM	35.6 µM	6.15 µM	32.5 µM	54.1 µM	15.7 µM	18.2 µM	3.04 µM
O=c1nc2[nH]c3c(-c4n[nH]c(=O)[nH]c4=O)cccc3c2n[nH]1	> 100 µM	> 100 µM	> 100 µM	> 100 µM	> 100 µM	> 100 µM	> 100 µM	> 100 µM	> 100 µM	> 100 µM	> 100 µM	> 100 µM	> 100 µM	> 100 µM	> 100 µM	> 100 µM	> 100 µM	> 100 µM	> 100 µM	> 100 µM
COC(=O)[C@H](Cc1cn(C)cn1)NC(=O)[C@@H](NC(=O)Nc1cc(C(F)(F)F)cc(C(F)(F)F)c1)C(C)C	4.83 µM	9.9 µM	> 10 µM	3.08 µM	> 10 µM	2.91 µM	9.07 µM	> 10 µM	2.59 µM	4.94 µM	> 10 µM	> 10 µM	> 10 µM	> 10 µM	> 10 µM	> 10 µM	> 10 µM	> 10 µM	8.25 µM	6.44 µM
OCCCCC#Cc1ccccc1C#Cc1ccc(C(F)(F)F)cc1	26.3 µM	11.9 µM	25.3 µM	0.693 µM	31.8 µM	11.4 µM	24.3 µM	18.6 µM	17 µM	17.4 µM	33 µM	30.2 µM	14.9 µM	28.2 µM	16.9 µM	31.8 µM	65.9 µM	33.8 µM	35.2 µM	15.8 µM
COC(=O)[C@]1(C)CCC[C@]2(C)[C@@H]1CCC13C[C@@H](C=CO1)[C@@H](C)CC32O (stereo partly drawn)	20.7 µM	–	–	17.1 µM	> 100 µM	> 100 µM	> 100 µM	55.2 µM	> 100 µM	64.4 µM	> 100 µM	> 100 µM	70 µM	> 100 µM	> 100 µM	> 100 µM	76.5 µM	> 100 µM	> 100 µM	62.2 µM
C=C(Cn1c2ccccc2c(=O)c2ccccc21)c1ccc(C(=O)Nc2ccccc2N)cc1	> 100 µM	> 28.9 µM	> 100 µM	0.605 µM	2.25 µM	> 27.3 µM	> 100 µM	> 26 µM	6.56 µM	16.2 µM	> 100 µM	> 28 µM	> 100 µM	> 100 µM	> 100 µM	> 100 µM	> 100 µM	> 100 µM	> 100 µM	1.08 µM
N/C(=N\C(N)=N\c1nc2ccccc2s1)c1cnccn1	4.7 µM	2.53 µM	7.96 µM	4.32 µM	> 100 µM	2.92 µM	16.1 µM	2.14 µM	3.68 µM	–	–	15.3 µM	2.13 µM	5.26 µM	3.68 µM	> 100 µM	> 100 µM	5.06 µM	> 100 µM	2.15 µM
O=c1[nH]c2ccc([N+](=O)[O-])c(Cl)c2c2ccccc12	–	–	11.3 µM	–	7.59 µM	–	> 100 µM	–	–	–	26.3 µM	56.7 µM	–	15.6 µM	–	35.4 µM	> 100 µM	13.2 µM	17.9 µM	–
O=C(OC[C@@H]1CO1)c1cccc2c(=O)c3ccccc3[nH]c12	0.499 µM	0.646 µM	–	0.0604 µM	–	0.357 µM	3.45 µM	0.2 µM	0.0649 µM	0.246 µM	1.41 µM	1.49 µM	0.517 µM	4.31 µM	0.474 µM	4.17 µM	3.78 µM	0.687 µM	1.16 µM	0.288 µM
C#Cc1cccc(NC(=O)C2CCCN(C(=O)CCl)C2)c1 (stereo not drawn)	> 82.5 µM	> 82.5 µM	> 82.5 µM	24.2 µM	> 82.5 µM	> 82.5 µM	> 82.5 µM	> 82.5 µM	29.5 µM	21.5 µM	45 µM	> 82.5 µM	> 82.5 µM	> 82.5 µM	> 82.5 µM	> 82.5 µM	> 82.5 µM	> 82.5 µM	> 82.5 µM	> 82.5 µM
COc1ccc(OCC(O)CN2CCN(c3ccc(Cl)cc3)CC2)cc1 (stereo not drawn)	> 100 µM	–	–	> 100 µM	> 100 µM	28.4 µM	> 100 µM	8.86 µM	> 100 µM	> 100 µM	> 100 µM	83.5 µM	> 100 µM	> 100 µM	> 100 µM	> 100 µM	> 100 µM	> 100 µM	> 100 µM	17 µM
